Results reported in patent US11559528B2, “BACE1 inhibition for the treatment of cancer” (The Cleveland Clinic Foundation, priority 2019, dated 2023).

Experiments:
GSCs (T387 and T4121) = assay: Immunoblot of apoptotic markers in glioma stem cells; format: cell-based, human; settings: MK-8931 50 μg/mL, different times
Protocol: FIG. 16, panels A-E. MK-8931 Treatment Had Little Effect on Glioma Stem Cells. (A and B) Tumorsphere formation assay to examine the effect of MK-8931 treatment on glioma stem cells (GSCs). Representative images (A) of tumorsphere derived from T4121 GSCs treated with MK-8931 (50 μg/mL) or the vehicle control. Quantifications (B) show the number and size of tumorsphere derived from T4121 GSCs treated with MK-8931 (50 μg/mL) or the control. Data are shown as mean±SEM. NS (not significant)≥0.05, Student's t-test. […] GAPDH was blotted as loading control. (D) Immunoblot analysis of the apoptotic markers cleaved-PARP and cleaved caspase-3 in GSCs (T387 and T4121) treated with MK-8931 (50 μg/mL), etoposide (Etop, 1 μM), or the vehicle control for different time as indicated. GAPDH was blotted as loading control. […] Ctl: Control; Etop: Etoposide. (E) Cell viability assay to examine the effect of MK-8931 treatment on proliferation of glioma stem cells. […] Data are shown as mean±SEM. NS (not significant)≥0.05, Student's t-test.

[1] = test system: U937-derived M2 macrophages; assay: Immunoblot of macrophage markers in U937-derived M2 macrophages; parameters: expression of M2 macrophage markers (CD163 and ARG1): dose or concentration left out as unconfirmed
Protocol: In brief, U937 cells were primed by PMA (5 nM) for two days to generate M0 macrophages and then incubated with IL4 (20 ng/mL), IL10 (20 ng/mL), and TGFβ (20 ng/mL) for three days to produce M2-like macrophages. (B) Immunoblot analyses of BACE1, the M2 macrophage markers (CD163 and ARG1), and the total macrophage marker IBA1 in U937 monocytes and the U937-derived M2 macrophages expressing shRNAs against BACE1 (shBACE1) or non-targeting sequence (NT). […] (D) Immunoblot analyses of the M2 macrophage markers (CD163 and ARG1), the M1 macrophage markers (iNOS and HLA-DR), and the total macrophage marker IBA1 in the U937-derived M2 macrophages expressing shRNAs against BACE1 (shBACE1: #1 or #2) or non-targeting control (shNT). The U937-derived M2 macrophages were transduced with shBACE1 shNT through lentiviral infection.
In brief, U937 cells grown in a 10-cm tissue culture dish were primed by PMA (5 nM) for two days to produce M0 macrophages. Then the M0 macrophages were further induced by IL4 (20 ng/mL, Peprotech, 200-04), IL10 (20 ng/mL, Peprotech, 200-10), and TGFβ (20 ng/mL, Peprotech, 200-21) for three days to generate M2 macrophages.
In brief, cells were lysed with the RIPA buffer [50 mM TrisHCl (pH7.4), 150 mM NaCl, 2 mM EDTA, 1% (v/v) NP-40, 0.1% (w/v) SDS, protease inhibitor (one tablet per 10 mL RIPA buffer, Roche)] for 20 minutes on ice. […] The lysates were collected and subjected to SDS-PAGE and blotted onto the PVDF membranes (ASI, XR730). After blockade with 5% (w/v) non-fat milk (RPI, M17200) in TBST, the membranes were incubated with primary antibodies overnight at 4° C. After the incubation of the first antibodies, the membranes were washed three times with TBST for ten minutes each. Then, the membranes were incubated with the second HRP-linked antibodies in the 5% milk for one hour at room temperature.

[2] = test system: GBM xenografts derived from T4121 GSCs; assay: Intracranial GBM xenografts from T4121 glioma stem cells; format: in vivo, mouse
Source text: FIG. 4, panels A-F. BACE1 Inhibition by MK-8931 Converts M2 TAMs into M1 Macrophages to Phagocytize Glioma Cells in GBM Xenografts. (A and B) Density analysis of M2 TAMs by immunofluorescent staining of the M2 TAM marker (CD163 or FIZZ1) and the total TAM marker IBA1 and in GBM xenografts treated with MK-8931 or vehicle control. GBM xenografts were established by implantation of glioma stem cells (T4121) through intracranial injection. […] Representative immunofluorescent images (A) showing M2 TAMs (CD163^+ or FIZZ1^+, in red) and total TAMs (IBA1^+, in green) in the MK-8931-treated or control GBM xenografts. […] (C and D) Density analysis of M1 TAMs by immunofluorescent staining of the M TAM marker (HLA-DR or CD11c) and the total TAM marker IBA1 and in GBM xenografts treated with MK-8931 or vehicle control. […] Representative immunofluorescent images (C) showing M1 TAMs (HLA-DR^+ or CD11c^+, in red) and total TAMs (IBA1^+, in green) in the MK-8931-treated or control GBM xenografts. […] (E and F) In vivo phagocytosis of TAMs against human glioma cells in the MK-8931-treated or control GBM xenografts. […] Representative images (E) showing in vivo TAM phagocytosis as inclusion bodies of glioma cells (TRA-1-85^+, in red) with TAMs (IBA1, in green) in the MK-8931 treated GBM xenografts but not in the control tumors. […] Scale bar represents 30 μM. Ctl: Control; MK: MK-8931.

[3] = test system: iPSC-derived M2 macrophages; assay: Fluorescent phagocytosis screening assay, iPSC-derived M2 macrophages against glioma cells; format: cell-based, human
HepG2 liver cancer cells = assay: Subcutaneous liver cancer xenografts (HepG2); format: in vivo, mouse; settings: 50 mg/kg once daily oral gavage, from two weeks after inoculation; p<0.05
Source text: (A-C) A preclinical trial of MK-8931 for liver cancer treatment xenograft models. HepG2 liver cancer cells (5×106) were transplanted into mouse right flank through subcutaneous injection to establish subcutaneous liver cancer xenografts. […] Tumors dissected from mice of each group were photographed (B) and weighed (C).

[4] = 0, 5, 10, 25, 50, and 100 μg/mL for three days
[5] = 50 μg/mL for 0, 12, 24, 48, 72, or 96 hours
[6] = 30 mg/kg once daily oral gavage two weeks
[7] = 30 mg/kg once daily oral gavage two weeks, p<0.001

CN1C(N)=N[C@](C)(c2cc(NC(=O)c3ccc(F)cn3)ccc2F)CS1(=O)=O [MK-8931]
apoptotic markers cleaved-PARP and cleaved caspase-3 (GSCs (T387 and T4121)): did not induce apoptosis in GSCs in vitro
M1 marker expression (iNOS and HLA-DR), dose series [1, 4]: induced M1 marker expression
M2 marker expression (CD163 and ARG1), dose series [1, 4]: inhibited M2 marker expression in a dose-dependent manner
M1 marker expression (iNOS and HLA-DR), time course [1, 5]: induced M1 marker expression in a time-dependent fashion
M2 marker expression (CD163 and ARG1), time course [1, 5]: inhibited M2 marker expression
M2 to M1 switch with ectopic expression of constitutively activated STAT3 (STAT3-C) ([1]; MK-8931 50 μg/mL three days, STAT3-C-Flag vs vector): attenuated the M2 to M1 switch induced by MK-8931 treatment
expression of total macrophage marker IBA1 ([1]; MK-8931 (50 g/mL) three days): little effect
expression of M2 macrophage markers (CD163 and ARG1) ([1]; MK-8931 three days): reduced expression of the M2 macrophage markers
IBA1+/pSTAT3+ double positive cells (TAMs) [2, 6]: significantly reduced STAT3 activating phosphorylation in TAMs
pSTAT3+ cells in xenografts [2, 6]: significantly reduced STAT3 activating phosphorylation in GBM xenografts
density of M1 TAMs (HLA-DR+/IBA1+ or CD11c+/IBA1+) [2, 7]: significantly increased density of M1 TAMs
density of M2 TAMs (CD163+/IBA1+ or FIZZ1+/IBA1+) [2, 7]: significantly reduced density of M2 TAMs
in vivo TAM phagocytosis (inclusion bodies of TRA-1-85+ glioma cells with IBA1+ TAMs) ([2]; 30 mg/kg once daily oral gavage, p<0.01): promoted TAM phagocytosis
macrophage phagocytosis against cancer cells [3]: promotes macrophage phagocytosis against cancer cells
phagocytosis of iPSC-derived macrophages against human glioma cells (inclusion bodies) ([3]; MK-8931 50 μg/mL two days, T4121 tdTomato cells co-incubated two hours, p<0.001 vs vehicle): potently induced phagocytosis of iPSC-derived macrophages
screen of drug libraries and known inhibitors for promoters of macrophage phagocytosis: hit ([3]; glioma cells and lung ADC cells): hits
tumor growth (tumor weight) (HepG2 liver cancer cells): significantly inhibited liver tumor growth
